Test results reported in ChEMBL document CHEMBL1159211, “Antifungal evaluation of pseudolaric acid B, a major constituent of Pseudolarix kaempferi” (J Nat Prod, 1995).
Calls of active or inactive are those of the source.

What was measured:
Pseudomonas aeruginosa = assay: Antimicrobial activity against Pseudomonas aeruginosa at 1 mg/mL by agar-well diffusion assay; assay type: functional, organism-based
Candida albicans [1] = assay: (§1) Antifungal activity against Candida albicans NIH B311 infected in mouse assessed as reduction in number of recovered colony-forming units assessed per mg of kidney at 3 mg/kg, ip administered 7 and 24 hrs after infection measured 16 hrs after final injection by tenfold serial dilution method relative to control; assay type: functional; design: scale not given: the % may be the effect or the level left; details: route intraperitoneal
Aspergillus fumigatus = assay: Antimicrobial activity against Aspergillus fumigatus at 1 mg/mL by agar-well diffusion assay; assay type: functional
Aspergillus flavus = assay: Antimicrobial activity against Aspergillus flavus at 1 mg/mL by agar-well diffusion assay; assay type: functional
Escherichia coli = assay: Antimicrobial activity against Escherichia coli at 1 mg/mL by agar-well diffusion assay; assay type: functional, organism-based
Candida albicans [2] = assay: Antimicrobial activity against Candida albicans at 1 mg/mL by agar-well diffusion assay; assay type: functional; details: Candida albicans; read-out: IZ
Bacillus subtilis = assay: Antimicrobial activity against Bacillus subtilis at 1 mg/mL by agar-well diffusion assay; assay type: functional, organism-based
Saccharomyces cerevisiae = assay: Antimicrobial activity against Saccharomyces cerevisiae at 1 mg/mL by agar-well diffusion assay; assay type: functional, organism-based
Candida albicans [3] = assay: as §1, with “at 20” for “at 3”; assay type: functional, organism-based; design: dose 20 mg/kg
Staphylococcus aureus = assay: Antimicrobial activity against Staphylococcus aureus at 1 mg/mL by agar-well diffusion assay; assay type: functional, organism-based
Candida albicans [4] = assay: as §1, with “mouse tissue-burden model” for “mouse”, “at 3.5” for “at 3”; assay type: functional; design: scale not given: the % may be the effect or the level left; details: route intraperitoneal
[5] = system: Trichophyton mentagrophytes; assay: Antimicrobial activity against Trichophyton mentagrophytes at 1 mg/mL by agar-well diffusion assay; assay type: functional
Candida albicans [6] = assay: as §1, with “at 7” for “at 3”; assay type: functional; design: scale not given: the % may be the effect or the level left; details: route intraperitoneal
Nannizzia gypsea = assay: Antimicrobial activity against Microsporum gypseum at 1 mg/mL by agar-well diffusion assay; assay type: functional
[7] = system: Mycobacterium intracellulare; assay: Antimicrobial activity against Mycobacterium intracellular at 1 mg/mL by agar-well diffusion assay; assay type: functional
Cryptococcus neoformans = assay: Antimicrobial activity against Cryptococcus neoformans at 1 mg/mL by agar-well diffusion assay; assay type: functional

COC(=O)C1=CC[C@@]23CC[C@@H]([C@@](C)(/C=C/C=C(\C)C(=O)O[C@@H]4O[C@H](CO)[C@@H](O)[C@H](O)[C@H]4O)OC2=O)[C@@]3(OC(C)=O)CC1
inactive: Activity (Pseudomonas aeruginosa) | Activity (Aspergillus fumigatus) | Activity (Aspergillus flavus) | Activity (Escherichia coli) | Activity (Bacillus subtilis) | Activity (Saccharomyces cerevisiae) | Activity (Candida albicans [3]) | Activity (Staphylococcus aureus) | Activity [5] | Activity (Nannizzia gypsea) | Activity [7] | Activity (Cryptococcus neoformans)
< 1 mm: zone of inhibition at 1000 µg/mL (Candida albicans [2])
46.59%: Activity (Candida albicans [6])
10%: Activity (Candida albicans [4])
9.91%: Activity (Candida albicans [1])
